{"source": "patent US10690672B2", "about": "“Methods for breast cancer treatment” (GEORGE MASON UNIVERSITY, priority 2015, dated 2020)", "key": {"breast cancer [1]": {"tested_on": "breast cancer", "assay": "I-SPY 2 TRIAL: pathological complete response (pCR) to neratinib plus standard chemotherapy vs concurrent control", "procedure": "Subjects providing samples (pre-treatment biopsies) for studies described herein were characterized based on measurement of estrogen/hormone receptor (HR) and HER2 (c-erbB2), and were described by HER2−/HR−. HER2+/HR+. HER2+/HR−, HER2−/HR+ phenotypes. Response to treatment was determined by the amount of tumor shrinkage and a lack of appreciable tumor evident at surgery. A response of tumor shrinkage and/or lack of tumor when examined (such as at surgery) is referred to herein as “complete pathological response” (pCR), and has recently been deemed by the US FDA as an appropriate clinical endpoint for therapeutic approval. Neratinib is a therapeutic agent with a mechanism of action that is as a tyrosine kinase inhibitor that binds to and inhibits c-erbB2 and EGFR protein activity and the respective linked downstream pathways. […] Methods described herein may comprise obtaining measurements of the amounts proteins from a subject sample using a protein array technology developed by the inventors, and is referred to herein as “reverse phase protein microarray” (RPPA). This microarray allows for quantitative measurement of the amount of proteins and/or phosphorylated proteins in the tumor or cancerous cells from pretreatment sample, for example from biopsy specimens of women with Stage II/III breast cancer.\nThis example tested the hypothesis that the response to the pan-ERBB inhibitor, neratinib, was predicted by pre-treatment HER2-EGFR signaling. […] All patients received at least standard chemotherapy (which was comprised of 12 weekly cycles of paclitaxel (a taxane) therapy followed by 4 cycles of doxorubicin/cyclophosphamide (AC) therapy). For HER2+ patients, neratinib was administered in place of trastuzumab, and all HER2+ control arm patients received chemotherapy plus trastuzumab. 18 HER family signaling proteins were evaluated as biomarkers of neratinib response using reverse phase protein microarray (RPMA) data from pre-treatment laser capture microdissection (LCM) purified tumor epithelium.\nEighteen (18) protein/phosphoproteins biomarkers relating to HER family signaling were evaluated: AKT S473, AKT T308, EGFR, EGFR Y1068, EGFR Y1148, EGFR Y1173, EGFR Y992, ERBB2, ERBB2 Y1248, ERBB3 total, ERBB3 Y1289, ERK1/2 T202/Y204, Heregulin, mTOR, mTOR S2448, PI3K p85 Y458/p55 Y199, PTEN S380, and SHC Y317. This study assessed association between biomarker and response in the neratinib and control arms alone (likelihood ratio test), and relative performance between arms (biomarker×treatment interaction) using a logistic model. Analysis was also performed adjusting for HR/HER2 status."}, "breast cancer [2]": {"tested_on": "breast cancer", "assay": "Bayesian analysis (MCMC simulation on I-SPY 2 data): probability of superiority to control and of Phase III success", "assay_type": "in vivo, human", "excerpt": "Bayesian analysis was completed using the MCMC simulation based on I-SPY 2 data with the following model: pCR˜HR+HER2+biomarker+treatment+treatment*HR+treatment*HER2+treatment*biomarker. No multiple comparison adjustments were applied. The Bayesian analytical engine developed by Don Berry (Yee et al J Clin Oncol. 2012 Dec. 20; 30(36):4584-6), is a mathematical approach that evaluates the clinical performance of a drug (in this case, neratinib) in both the treatment arm (in this case tumor shrinkage estimates by size changes observed by MRI), coupled with complete pathological response (pCR) as measured as the final response determinant, and the response of the predicate therapy in the control arm. This evaluation determined success of a given therapy for a Phase III trial, and in this case, it was determined that phosphorylation of EGFR at Y1173 was not only statistically significant at predicting or assessing response to neratinib in all patients regardless of hormone receptor levels and HER2 levels (HER2+, HER2− and HR+ and HR−), but when patients with high levels of phosphorylated EGFR (Y1173) were added to the HR−/HER2+ subgroup, the prevalence of ‘biomarker-positive’ patients increased by 50%, while increasing the predicted probability of Phase III success to 90%. Moreover, when EGFR Y1173 was used as a single marker, a statistically significant increase in Phase III success was determined for all patients compared to HER2+/HR− status as measured by immunohistochemical methods. (93% vs 87%)."}}, "data": [{"smiles": "CCOc1cc2ncc(C#N)c(Nc3ccc(OCc4ccccn4)c(Cl)c3)c2cc1NC(=O)/C=C/CN(C)C", "note": "[Neratinib]", "values": [{"measurement": "OR associated with treatment (pCR)", "setting": "breast cancer [1]; EGFR Y1173 High patients added to the graduating HR−/HER2+ subset", "result": 3.2}, {"measurement": "odds ratio (OR) of pCR between EGFR Y1173 groups in the N relative to control arm", "setting": "breast cancer [1]; EGFR Y1173 High vs Low, neratinib arm relative to control arm", "result": 10.1}, {"measurement": "clinical response", "setting": "breast cancer [1]; HER2+/HR− subtype", "result": "statistically significant clinical response"}, {"measurement": "pCR rate", "setting": "breast cancer [1]; HR−/HER2+ patients, EGFR Y1173 High, neratinib arm", "result": "12/18 (67%)"}, {"measurement": "pCR rate", "setting": "breast cancer [1]; HR−/HER2+ patients, EGFR Y1173 Low, neratinib arm (neratinib in place of trastuzumab + paclitaxel then AC)", "result": "0/4 (0%)"}, {"measurement": "OR associated with treatment (pCR)", "setting": "breast cancer [1]; HR−/HER2+ signature", "result": 2.1}, {"measurement": "trial outcome (graduation)", "setting": "breast cancer [1]; I-SPY 2 TRIAL, HR−/HER2+ signature", "result": "graduated"}, {"measurement": "pCR rate", "setting": "breast cancer [1]; Not HR−/HER2+ patients, EGFR Y1173 High, neratinib arm", "result": "24/57 (42%)"}, {"measurement": "pCR rate", "setting": "breast cancer [1]; Not HR−/HER2+ patients, EGFR Y1173 Low, neratinib arm", "result": "3/27 (11%)"}, {"measurement": "pCR by subtype", "setting": "breast cancer [1]; regardless of HER2/HR status", "result": "pCR was observed in every subtype"}, {"measurement": "Prob > CTRL (probability of Neratinib superiority to control)", "setting": "breast cancer [2]; EGFR Y1173 High", "result": 0.99}, {"measurement": "Prob Ph III Success", "setting": "breast cancer [2]; EGFR Y1173 High", "result": 0.93}, {"measurement": "probability of Phase III success", "setting": "breast cancer [2]; EGFR Y1173 used as a single marker, all patients", "result": 93, "unit": "%"}, {"measurement": "probability of Phase III success", "setting": "breast cancer [2]; HER2+/HR− status by immunohistochemical methods", "result": 87, "unit": "%"}, {"measurement": "Prob > CTRL (probability of Neratinib superiority to control)", "setting": "breast cancer [2]; HR−/HER2+", "result": 0.97}, {"measurement": "Prob Ph III Success", "setting": "breast cancer [2]; HR−/HER2+", "result": 0.87}, {"measurement": "Prob > CTRL (probability of Neratinib superiority to control)", "setting": "breast cancer [2]; HR−/HER2+ AND EGFR Y1173 High", "result": 0.99}, {"measurement": "Prob Ph III Success", "setting": "breast cancer [2]; HR−/HER2+ AND EGFR Y1173 High", "result": 0.95}, {"measurement": "Prob > CTRL (probability of Neratinib superiority to control)", "setting": "breast cancer [2]; HR−/HER2+ OR EGFR Y1173 High", "result": 0.99}, {"measurement": "Prob Ph III Success", "setting": "breast cancer [2]; HR−/HER2+ OR EGFR Y1173 High", "result": 0.9}, {"measurement": "predicted probability of Phase III success", "setting": "breast cancer [2]; patients with high phosphorylated EGFR (Y1173) added to the HR−/HER2+ subgroup", "result": 90, "unit": "%"}]}]}
